Data from PMC12095047, “Transport of phenoxyacetic acid herbicides by PIN-FORMED auxin transporters” (Nature Plants, 2025).
Several values for one entry are separate records, joined by “and”; a condition that tells them apart may be missing. Identical values can stand only once.

Columns and labels:
[1] = cited from earlier work
[2] = test system: A. thaliana stem segments of pin1 mutants; assay: Arabidopsis stem transport assay, pin1 mutant; format: in vivo, Arabidopsis thaliana
Procedure: Arabidopsis stem transport assays were carried out as described. Briefly, 2 cm stem sections were cut above the rosette of 5-week-old plants and placed in inverted orientation into auxin transport buffer containing 500 pM IAA, 1% (wt/vol) sucrose, 5 mM 2-(N-morpholino)ethanesulfonic acid, pH 5.5 with or without 100 μM NPA. After 2 h the stems were transferred into auxin transport buffer containing 417 nM [^3H]-IAA or [^3H]-2,4-D as a substrate in the absence and presence of NPA. After 2 h, 5 mm segments were dissected, and the substrate was quantified using a liquid scintillation counter.

A. thaliana PIN3 = biological target: T1, A. thaliana PIN3 (Arabidopsis thaliana, UniProt Q9S7Z8); assay: Xenopus oocyte efflux assay, PIN3 with or without PID kinase; format: cell-based; conditions: for Rel. 2,4-D transport rate (% exported/min): replicates; for Rel. 2,4-D transport rate: PIN3 oocytes, individual experiments
T1 construct: expressed in transfected cells; host or cells: Xenopus oocytes (cRNA injection)
T1 sequence (Q9S7Z8 1-640): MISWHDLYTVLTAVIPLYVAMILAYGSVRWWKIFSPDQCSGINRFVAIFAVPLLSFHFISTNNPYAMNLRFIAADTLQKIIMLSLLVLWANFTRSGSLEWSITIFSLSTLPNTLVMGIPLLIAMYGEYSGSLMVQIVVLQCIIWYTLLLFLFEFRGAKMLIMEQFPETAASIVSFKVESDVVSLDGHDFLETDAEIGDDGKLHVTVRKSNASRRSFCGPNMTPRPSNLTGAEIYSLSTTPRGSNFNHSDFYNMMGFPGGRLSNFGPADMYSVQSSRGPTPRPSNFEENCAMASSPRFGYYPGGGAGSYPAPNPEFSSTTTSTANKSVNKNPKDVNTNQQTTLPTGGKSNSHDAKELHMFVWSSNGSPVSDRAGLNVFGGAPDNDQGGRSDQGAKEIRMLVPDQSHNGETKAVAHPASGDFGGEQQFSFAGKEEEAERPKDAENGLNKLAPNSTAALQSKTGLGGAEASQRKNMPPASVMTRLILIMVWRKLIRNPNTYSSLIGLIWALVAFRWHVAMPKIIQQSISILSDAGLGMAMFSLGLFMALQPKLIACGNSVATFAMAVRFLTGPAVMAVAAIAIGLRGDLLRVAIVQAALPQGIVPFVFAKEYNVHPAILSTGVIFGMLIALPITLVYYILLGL
Procedure: Oocyte efflux experiments were carried out as described[12],[20],[26]. Briefly, oocytes were injected with 150 ng transporter complementary RNA without or with 75 ng kinase cRNA. [^3H]-IAA (25 Ci mmol^−1) and [^3H]-4-CPA (37.7 Ci mmol^−1) was purchased from RC Tritec. [^3H]-2,4-D (25 Ci mmol^−1) was purchased from ARC. Oocytes were injected with substrate to reach an internal concentration of 1 µM, corresponding to 100%. Residual radioactivity was determined for each individual oocyte by liquid scintillation counting after the time points indicated and are expressed relative to the initial 100%. Each time point represents the mean and s.e. of ten oocytes. To calculate the relative transport rate in percentage per minute, linear regression was performed. Each data point in Fig. 1b,c and Extended Data Fig. 2b,e represents the transport rate of one biological replicate using oocytes collected from different Xenopus females.

PIN8 = biological target: T2, PIN8 (Arabidopsis thaliana, UniProt Q9LFP6); parameters: method as in PMID 35768502; conditions: read-out: IAA binding affinity KD, previously described; cited from earlier work
T2 construct: made in house
T2 sequence (Q9LFP6 1-367): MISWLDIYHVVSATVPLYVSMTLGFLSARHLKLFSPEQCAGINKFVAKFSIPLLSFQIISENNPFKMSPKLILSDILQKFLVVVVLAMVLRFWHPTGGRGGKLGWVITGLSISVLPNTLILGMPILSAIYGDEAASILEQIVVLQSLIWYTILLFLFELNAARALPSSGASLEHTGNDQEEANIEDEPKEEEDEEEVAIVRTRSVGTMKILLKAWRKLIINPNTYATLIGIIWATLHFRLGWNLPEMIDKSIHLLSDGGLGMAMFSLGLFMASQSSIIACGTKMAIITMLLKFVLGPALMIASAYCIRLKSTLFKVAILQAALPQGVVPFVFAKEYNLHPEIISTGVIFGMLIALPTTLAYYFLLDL

Structure (SMILES)	acid dissociation constant pKa [1]	transport in stem segments ([2]; pin1 mutants)	CPM ([2]; sheet EDF2I, pin1, + NPA, Segment 1, single stems)	CPM ([2]; sheet EDF2I, pin1, + NPA, Segment 2, single stems)	CPM ([2]; sheet EDF2I, pin1, - NPA, Segment 2, single stems)	Rel. 2,4-D transport rate (% exported/min) (A. thaliana PIN3; PID +)	Rel. 2,4-D transport rate (% exported/min) (A. thaliana PIN3; PID -)	export rate relative to the IAA transport rate (A. thaliana PIN3; PIN3 activated by PID kinase, NPA-sensitive)	Rel. 2,4-D transport rate (A. thaliana PIN3; PID +, NPA + (10 μM))	Rel. 2,4-D transport rate (A. thaliana PIN3; PID +, NPA -)	Rel. 2,4-D transport rate (A. thaliana PIN3; PID -, NPA + (10 μM))	Rel. 2,4-D transport rate (A. thaliana PIN3; PID -, NPA -)	Kd (PIN8) [µM]	CPM ([2]; sheet EDF2H, pin1, + NPA, Segment 2, single stems)	CPM ([2]; sheet EDF2H, pin1, + NPA, Segment 3, single stems)	CPM ([2]; sheet EDF2H, pin1, - NPA, Segment 3, single stems)	Rel. IAA transport rate (% exported/min) (A. thaliana PIN3; PID +, NPA -, single experiments)
O=C(O)COc1ccc(Cl)cc1Cl [2,4-D, 2,4-dichlorophenoxyacetic acid]	2.73	completely abolished	52 CPM and 51 CPM and 42 CPM and 38 CPM	52 CPM and 31 CPM and 27 CPM and 33 CPM	18 CPM and 32 CPM and 22 CPM and 34 CPM and 25 CPM	2.469 % exported/min and 1.491 % exported/min and 1.857 % exported/min	1.104 % exported/min and -0.5881 % exported/min and -1.06 % exported/min	about half of the IAA transport rate	0.306 % exported/min and 0.1671 % exported/min and -0.318 % exported/min	2.085 % exported/min and 2.202 % exported/min and 1.56 % exported/min	0.4736 % exported/min and -0.2953 % exported/min and -0.2713 % exported/min	-0.1695 % exported/min and 0.4151 % exported/min and -0.6296 % exported/min					
O=C(O)Cc1c[nH]c2ccccc12 [IAA, indole-3-acetic acid]	4.7												40 ± 15	103 CPM and 109 CPM and 91 CPM and 134 CPM and 78 CPM	70 CPM and 80 CPM and 98 CPM and 135 CPM and 76 CPM	119 CPM and 97 CPM and 69 CPM and 107 CPM and 82 CPM	5.59 % exported/min and 5.28 % exported/min and 4.145 % exported/min
